Results published in US9796700B2 (Celgene CAR LLC, priority 2013, dated 2017).
Where two headings read alike, the source gives them in different places.

Key:
Erk1 = Erk1 (Homo sapiens (Human), UniProt P27361); assay: Protein Mass Modification Assay (intact protein MALDI); type: binding
Summary of the method: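 Human Erk1 was incubated 60 min at room temperature with a 10-fold molar excess of compound, then analysed as intact protein by MALDI with sinapinic acid matrix. The centroid mass shift versus untreated protein was divided by compound molecular weight to give percent modified protein.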

MEK1 activated ERK1 = MEK1 activated ERK1 (Homo sapiens (Human), UniProt P27361); assay: Omnia continuous-read kinase assay for potency against MEK1 activated ERK1; type: biochemical
MEK1 activated ERK1, sequence (P27361 whole entry): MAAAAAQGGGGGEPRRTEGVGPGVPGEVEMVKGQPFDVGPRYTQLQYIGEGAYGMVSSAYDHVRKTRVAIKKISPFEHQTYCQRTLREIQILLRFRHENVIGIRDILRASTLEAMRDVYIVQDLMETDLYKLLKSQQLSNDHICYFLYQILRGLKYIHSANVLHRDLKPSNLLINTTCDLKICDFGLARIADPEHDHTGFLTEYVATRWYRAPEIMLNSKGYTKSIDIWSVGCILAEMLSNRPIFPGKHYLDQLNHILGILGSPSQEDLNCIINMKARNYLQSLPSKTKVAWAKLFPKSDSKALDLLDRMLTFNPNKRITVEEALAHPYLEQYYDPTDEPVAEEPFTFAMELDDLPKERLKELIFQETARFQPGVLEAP
Text: Omnia Assay Protocol for Potency Assessment Against MEK1 Activated ERK1:
The protocol below describes continuous-read kinase assays to measure potency of compounds against activated ERK1 enzyme. The mechanics of the assay platform are best described by the vendor (Invitrogen, Carlsbad, Calif.) on their website at the following URL: invitrogen.com/site/us/en/home.html.
Briefly, a 1.25× stock of ERK1 enzyme (14-439-K) from Millipore (Billerica, Mass.), 5×ATP (AS001A) and ST17-Sox conjugated peptide substrate (KNZ1171C) were prepared in 1× kinase reaction buffer consisting of 20 mM Tris, pH 7.5, 5 mM MgCl2, 1 mM EGTA, 5 mM β-glycerophosphate, 5% glycerol (10× stock, KB002A) and 0.2 mM DTT. 10 μL of ATP/ST17-sox peptide substrate mix was combined with 0.5 μL volume of 100% DMSO and serially diluted compounds were prepared in 100% DMSO in a Corning (#3574) 384-well, white, non-binding surface microtiter plate (Corning, N.Y.). Kinase reactions were started with the addition of 40 μL of ERK1 solution and monitored every 71 seconds for 30-240 minutes at λex360/λem485 in a Synergy plate reader from BioTek (Winooski, Vt.). At the conclusion of each assay, progress curves from each well were examined for linear reaction kinetics and fit statistics (R^2, 95% confidence interval, absolute sum of squares). Initial velocity (0 minutes to ˜30+ minutes) from each reaction was determined from the slope of a plot of relative fluorescence units vs time (minutes or seconds) and then plotted against inhibitor concentration to estimate ^AppIC50 from log [Inhibitor] vs Response, Variable Slope model in GraphPad Prism from GraphPad Software (San Diego, Calif.).
[Reagent] used in optimized protocol:
[ERK1]=4 nM, [ATP]=50 μM, [ST17-Sox]=10 μM (ATP ^appKM 48 μM)
The results of this assay show the degree of inhibition of ERK activity, which is a direct measurement of inhibition of ERK activity. Results from this assay are reported in Table A under the column “ERK1 Omnia WT ATP KM IC50 (nM).”

[1] = MEK1 activated ERK1, WT, ATP at KM

Erk1, sequence (P27361 whole entry, looked up): as the sequence (P27361 whole entry) above

SMILES | ERK1 Mass Mod (%) (Erk1) | IC50 (MEK1 activated ERK1; [1]) [nM] | IC50 (MEK1 activated ERK1; read-out: ERK1 Omnia WT ATP KM IC50) [nM]
C=C(C)S(=O)(=O)Nc1cc(C)ccc1Nc1nc(Nc2cc(C(C)=O)ccc2C)ncc1C(F)(F)F [Compound I-98, N-(2-((2-((5-acetyl-2-methylphenyl)amino)-5-(trifluoromethyl)pyrimidin-4-yl)amino)-5-methylphenyl)prop-1-ene-2-sulfonamide] | E (provided a mass modification of ≧70%) | < 100 | –
C=CC(=O)Nc1ccccc1Nc1nc(N[C@H]2CCC[C@@H](C(N)=O)C2)ncc1C(F)(F)F [Compound I-118, (1R,3S)-3-((4-((2-acrylamidophenyl)amino)-5-(trifluoromethyl)pyrimidin-2-yl)amino)cyclohexanecarboxamide] | E (provided a mass modification of ≧70%) | < 100 | –
C=CC(=O)Nc1ccccc1Nc1nc(N[C@H]2CCCN(C(=O)CO)C2)ncc1Cl [Compound I-123, (S)—N-(2-((5-chloro-2-((1-(2-hydroxyacetyl)piperidin-3-yl)amino)pyrimidin-4-yl)amino)phenyl)acrylamide] | E (provided a mass modification of ≧70%) | < 100 | –
C=CC(=O)Nc1ccccc1Nc1nc(NC2CCN(C=O)CC2)ncc1Cl [Compound I-124, N-(2-((5-chloro-2-((1-formylpiperidin-4-yl)amino)pyrimidin-4-yl)amino)phenyl) acrylamide] | E (provided a mass modification of ≧70%) | < 100 | –
CCOCCC(=O)Nc1ccccc1Nc1nc(Nc2cc(C(N)=O)ccc2C)ncc1Cl [Compound I-130] | G (proived a mass modification ≦30%) | > 1000 | –
C=CC(=O)Nc1ccccc1Nc1nc(N[C@H]2CCCN(C(=O)CC)C2)ncc1Cl [Compound I-131, (S)—N-(2-((5-chloro-2-((1-propionylpiperidin-3-yl)amino)pyrimidin-4-yl)amino)phenyl)acrylamide] | E (provided a mass modification of ≧70%) | < 100 | –
C=CC(=O)Nc1ccccc1Nc1nc(N[C@H]2CCCN(C(=O)OC(C)(C)C)C2)ncc1Cl [Compound I-132, (S)-tert-butyl 3-((4-((2-acrylamidophenyl)amino)-5-chloropyrimidin-2-yl)amino) piperidine-1-carboxylate] | E (provided a mass modification of ≧70%) | > 1000 | –
C=CC(=O)Nc1ccccc1Nc1nc(N[C@H]2CCCN(C(=O)C3CC3)C2)ncc1Cl [Compound I-136, (S)—N-(2-((5-chloro-2-((1-(cyclopropanecarbonyl)piperidin-3-yl)amino)pyrimidin-4-yl)amino)phenyl)acrylamide] | E (provided a mass modification of ≧70%) | < 100 | –
C=CC(=O)Nc1cc(C)ccc1Nc1nc(N[C@H]2CCCN(C(C)=O)C2)ncc1Cl [Compound I-139, (S)—N-(2-((2-((1-acetylpiperidin-3-yl)amino)-5-chloropyrimidin-4-yl)amino)-5-methylphenyl)acrylamide] | E (key: E: provided a mass modification of ≧70%; F: provided a mass modification of 31-69%; G: proived a mass modification ≦30%) | – | < 100

Now from value to compound, other results behind:

ERK1 Mass Mod (%) (Erk1) | IC50 (MEK1 activated ERK1; [1]) [nM] | SMILES | IC50 (MEK1 activated ERK1; read-out: ERK1 Omnia WT ATP KM IC50) [nM]
E (provided a mass modification of ≧70%) | < 100 | C=CC(=O)Nc1ccccc1Nc1nc(Nc2cc(C(N)=O)ccc2C#N)ncc1C(F)(F)F [Compound I-71, 3-((4-((2-Acrylamidophenyl)amino)-5-(trifluoromethyl)pyrimidin-2-yl)amino)-4-cyanobenzamide] | –
E (provided a mass modification of ≧70%) | < 100 | C=CC(=O)Nc1cc(OC)ccc1Nc1nc(Nc2cc(OC)nc(N3CCN(CC)CC3)c2)ncc1C(F)(F)F [Compound I-88, N-(2-((2-((2-(4-Ethylpiperazin-1-yl)-6-methoxypyridin-4-yl)amino)-5-(trifluoromethyl)pyrimidin-4-yl)amino)-5-methoxyphenyl)acrylamide] | –
E (provided a mass modification of ≧70%) | < 100 | C=CC(=O)Nc1cc(C)ccc1Nc1nc(Nc2cc(OC)ncc2C)ncc1C(F)(F)F [Compound I-90, N-(2-((2-((2-Methoxy-5-methylpyridin-4-yl)amino)-5-(trifluoromethyl)pyrimidin-4-yl)amino)-5-methylphenyl)acrylamide] | –
E (provided a mass modification of ≧70%) | < 100 | C=CC(=O)Nc1cc(OC)ccc1Nc1nc(Nc2cc(OC)nc(N3CCN(C(C)=O)CC3)c2)ncc1C(F)(F)F [Compound I-91, N-(2-((2-((2-(4-Acetylpiperazin-1-yl)-6-methoxypyridin-4-yl)amino)-5-(trifluoromethyl)pyrimidin-4-yl)amino)-5-methoxyphenyl)acrylamide] | –
E (provided a mass modification of ≧70%) | < 100 | C=CC(=O)Nc1ccccc1Nc1nc(Nc2cc(OC)nc(OC)c2)ncc1C(F)(F)F [Compound I-95, N-(2-((2-((2,6-Dimethoxypyridin-4-yl)amino)-5-(trifluoromethyl)pyrimidin-4-yl)amino)phenyl)acrylamide] | –
E (provided a mass modification of ≧70%) | < 100 | C=CC(=O)Nc1ccccc1Nc1nc(N[C@@H]2CCC[C@H](C(N)=O)C2)ncc1Cl [Compound I-119, (1S,3R)-3-((4-((2-acrylamidophenyl)amino)-5-chloropyrimidin-2-yl)amino)cyclohexanecarboxamide] | –
E (provided a mass modification of ≧70%) | < 100 | C=CC(=O)Nc1ccccc1Nc1nc(N[C@H]2CCC[C@@H](C(N)=O)C2)ncc1Cl [Compound I-120, (1R,3S)-3-((4-((2-acrylamidophenyl)amino)-5-chloropyrimidin-2-yl)amino)cyclohexanecarboxamide] | –
E (provided a mass modification of ≧70%) | < 100 | C=CC(=O)Nc1ccccc1Nc1nc(N[C@H]2CCCN(S(C)(=O)=O)C2)ncc1Cl [Compound I-125, (S)—N-(2-((5-chloro-2-((1-(methylsulfonyl)piperidin-3-yl)amino)pyrimidin-4-yl)amino)phenyl)acrylamide] | –
E (provided a mass modification of ≧70%) | < 100 | C=CC(=O)Nc1ccccc1Nc1nc(N[C@H]2CCCN(C(=O)[C@@H](C)O)C2)ncc1Cl [Compound I-134, N-(2-((5-chloro-2-(((S)-1-((R)-2-hydroxypropanoyl)piperidin-3-yl)amino)pyrimidin-4-yl)amino)phenyl)acrylamide] | –
E (provided a mass modification of ≧70%) | < 100 | C=CC(=O)Nc1ccccc1Nc1nc(N[C@H]2CCCN(C(=O)C(C)C)C2)ncc1Cl [Compound I-137, (S)—N-(2-((5-chloro-2-((1-isobutyrylpiperidin-3-yl)amino)pyrimidin-4-yl)amino)phenyl)acrylamide] | –
E (provided a mass modification of ≧70%) | > 1000 | C=CC(=O)Nc1ccccc1Nc1nc(Nc2ccc(NC(C)=O)cc2C(F)(F)F)ncc1Cl [Compound I-150, N-(2-((2-((4-acetamido-2-(trifluoromethyl)phenyl)amino)-5-chloropyrimidin-4-yl)amino)phenyl)acrylamide] | –
